{
  "source": "the NIST ThermoML archive (doi:10.1016/j.fluid.2016.08.002)",
  "assay": "xn = mol fraction of the nth substance listed",
  "conditions": "Gas, Vibrating tube method",
  "note": "± gives the expanded uncertainty stated by the source.",
  "data": [
    {"smiles": "S", "note": "[hydrogen sulfide] + C", "values": [
      {"measurement": "mass density", "setting": "273.05 K, 6535 kPa, x2 = 0.8197", "result": "73.36 ± 1", "unit": "kg/m3"},
      {"measurement": "mass density", "setting": "273.05 K, 19490 kPa, x2 = 0.8197", "result": "268.43 ± 2.2", "unit": "kg/m3"},
      {"measurement": "mass density", "setting": "273.05 K, 20545 kPa, x2 = 0.8197", "result": "276.64 ± 1.8", "unit": "kg/m3"},
      {"measurement": "mass density", "setting": "273.05 K, 27474 kPa, x2 = 0.714", "result": "379.67 ± 1.5", "unit": "kg/m3"},
      {"measurement": "mass density", "setting": "273.05 K, 29015 kPa, x2 = 0.714", "result": "385.58 ± 1.5", "unit": "kg/m3"},
      {"measurement": "mass density", "setting": "273.06 K, 1024 kPa, x2 = 0.8197", "result": "8.86 ± 0.5", "unit": "kg/m3"},
      {"measurement": "mass density", "setting": "273.06 K, 1546 kPa, x2 = 0.8197", "result": "13.54 ± 0.58", "unit": "kg/m3"},
      {"measurement": "mass density", "setting": "273.06 K, 1998 kPa, x2 = 0.8197", "result": "17.83 ± 0.65", "unit": "kg/m3"},
      {"measurement": "mass density", "setting": "273.06 K, 3515 kPa, x2 = 0.714", "result": "41.26 ± 0.84", "unit": "kg/m3"},
      {"measurement": "mass density", "setting": "273.06 K, 4568 kPa, x2 = 0.8197", "result": "45.89 ± 0.92", "unit": "kg/m3"},
      {"measurement": "mass density", "setting": "273.06 K, 7007 kPa, x2 = 0.8197", "result": "80.78 ± 1.1", "unit": "kg/m3"},
      {"measurement": "mass density", "setting": "273.06 K, 7503 kPa, x2 = 0.8197", "result": "88.86 ± 1.1", "unit": "kg/m3"},
      {"measurement": "mass density", "setting": "273.06 K, 19898 kPa, x2 = 0.8197", "result": "271.74 ± 2", "unit": "kg/m3"},
      {"measurement": "mass density", "setting": "273.06 K, 27956 kPa, x2 = 0.714", "result": "381.54 ± 1.5", "unit": "kg/m3"},
      {"measurement": "mass density", "setting": "273.07 K, 2472 kPa, x2 = 0.8197", "result": "22.64 ± 0.71", "unit": "kg/m3"},
      {"measurement": "mass density", "setting": "273.07 K, 2991 kPa, x2 = 0.714", "result": "34.29 ± 0.78", "unit": "kg/m3"},
      {"measurement": "mass density", "setting": "273.07 K, 4037 kPa, x2 = 0.8197", "result": "39.48 ± 0.87", "unit": "kg/m3"},
      {"measurement": "mass density", "setting": "273.07 K, 19004 kPa, x2 = 0.8197", "result": "264.22 ± 2.5", "unit": "kg/m3"},
      {"measurement": "mass density", "setting": "273.07 K, 21088 kPa, x2 = 0.8197", "result": "280.47 ± 1.6", "unit": "kg/m3"},
      {"measurement": "mass density", "setting": "273.07 K, 22026 kPa, x2 = 0.8197", "result": "286.58 ± 1.4", "unit": "kg/m3"},
      {"measurement": "mass density", "setting": "273.08 K, 3006 kPa, x2 = 0.8197", "result": "28.12 ± 0.77", "unit": "kg/m3"},
      {"measurement": "mass density", "setting": "273.08 K, 3496 kPa, x2 = 0.8197", "result": "33.34 ± 0.83", "unit": "kg/m3"},
      {"measurement": "mass density", "setting": "273.08 K, 8037 kPa, x2 = 0.8197", "result": "97.86 ± 1.2", "unit": "kg/m3"},
      {"measurement": "mass density", "setting": "273.08 K, 17450 kPa, x2 = 0.714", "result": "319.61 ± 2.6", "unit": "kg/m3"},
      {"measurement": "mass density", "setting": "273.08 K, 17522 kPa, x2 = 0.8197", "result": "249.57 ± 2.4", "unit": "kg/m3"},
      {"measurement": "mass density", "setting": "273.08 K, 18504 kPa, x2 = 0.8197", "result": "259.61 ± 2.5", "unit": "kg/m3"},
      {"measurement": "mass density", "setting": "273.08 K, 21490 kPa, x2 = 0.8197", "result": "283.16 ± 1.5", "unit": "kg/m3"},
      {"measurement": "mass density", "setting": "273.09 K, 8509 kPa, x2 = 0.8197", "result": "106.04 ± 1.2", "unit": "kg/m3"},
      {"measurement": "mass density", "setting": "273.09 K, 8697 kPa, x2 = 0.8197", "result": "109.34 ± 1.2", "unit": "kg/m3"},
      {"measurement": "mass density", "setting": "273.09 K, 18521 kPa, x2 = 0.714", "result": "328.7 ± 2.7", "unit": "kg/m3"},
      {"measurement": "mass density", "setting": "273.1 K, 18017 kPa, x2 = 0.8197", "result": "254.8 ± 2.4", "unit": "kg/m3"},
      {"measurement": "mass density", "setting": "273.1 K, 18931 kPa, x2 = 0.714", "result": "331.97 ± 2.8", "unit": "kg/m3"},
      {"measurement": "mass density", "setting": "273.1 K, 22561 kPa, x2 = 0.8197", "result": "289.86 ± 1.3", "unit": "kg/m3"},
      {"measurement": "mass density", "setting": "273.1 K, 28471 kPa, x2 = 0.714", "result": "383.53 ± 1.5", "unit": "kg/m3"},
      {"measurement": "mass density", "setting": "273.11 K, 9417 kPa, x2 = 0.8197", "result": "122.17 ± 1.4", "unit": "kg/m3"},
      {"measurement": "mass density", "setting": "273.11 K, 10159 kPa, x2 = 0.8197", "result": "135.6 ± 1.4", "unit": "kg/m3"},
      {"measurement": "mass density", "setting": "273.11 K, 14299 kPa, x2 = 0.8197", "result": "207.01 ± 2", "unit": "kg/m3"},
      {"measurement": "mass density", "setting": "273.11 K, 17004 kPa, x2 = 0.8197", "result": "243.74 ± 2.3", "unit": "kg/m3"},
      {"measurement": "mass density", "setting": "273.11 K, 17956 kPa, x2 = 0.714", "result": "324.07 ± 2.6", "unit": "kg/m3"},
      {"measurement": "mass density", "setting": "273.11 K, 23102 kPa, x2 = 0.8197", "result": "293.06 ± 1.3", "unit": "kg/m3"},
      {"measurement": "mass density", "setting": "273.12 K, 23507 kPa, x2 = 0.8197", "result": "295.4 ± 1.3", "unit": "kg/m3"},
      {"measurement": "mass density", "setting": "273.13 K, 10896 kPa, x2 = 0.8197", "result": "148.97 ± 1.6", "unit": "kg/m3"},
      {"measurement": "mass density", "setting": "273.13 K, 11490 kPa, x2 = 0.8197", "result": "159.68 ± 1.7", "unit": "kg/m3"},
      {"measurement": "mass density", "setting": "273.13 K, 12024 kPa, x2 = 0.8197", "result": "169.16 ± 1.7", "unit": "kg/m3"},
      {"measurement": "mass density", "setting": "273.13 K, 13513 kPa, x2 = 0.8197", "result": "194.52 ± 1.9", "unit": "kg/m3"},
      {"measurement": "mass density", "setting": "273.13 K, 14007 kPa, x2 = 0.8197", "result": "202.45 ± 2", "unit": "kg/m3"},
      {"measurement": "mass density", "setting": "273.13 K, 14904 kPa, x2 = 0.8197", "result": "216.11 ± 2.1", "unit": "kg/m3"},
      {"measurement": "mass density", "setting": "273.13 K, 15510 kPa, x2 = 0.8197", "result": "224.73 ± 2.1", "unit": "kg/m3"},
      {"measurement": "mass density", "setting": "273.13 K, 16041 kPa, x2 = 0.8197", "result": "231.85 ± 2.2", "unit": "kg/m3"},
      {"measurement": "mass density", "setting": "273.13 K, 16504 kPa, x2 = 0.8197", "result": "237.74 ± 2.2", "unit": "kg/m3"},
      {"measurement": "mass density", "setting": "273.13 K, 24081 kPa, x2 = 0.8197", "result": "298.69 ± 1.3", "unit": "kg/m3"},
      {"measurement": "mass density", "setting": "273.13 K, 27492 kPa, x2 = 0.8197", "result": "316.71 ± 1.2", "unit": "kg/m3"},
      {"measurement": "mass density", "setting": "273.13 K, 28026 kPa, x2 = 0.8197", "result": "319.37 ± 1.2", "unit": "kg/m3"},
      {"measurement": "mass density", "setting": "273.13 K, 28568 kPa, x2 = 0.8197", "result": "321.92 ± 1.1", "unit": "kg/m3"},
      {"measurement": "mass density", "setting": "273.13 K, 29088 kPa, x2 = 0.8197", "result": "324.13 ± 1.1", "unit": "kg/m3"},
      {"measurement": "mass density", "setting": "273.13 K, 29546 kPa, x2 = 0.8197", "result": "325.75 ± 1.1", "unit": "kg/m3"},
      {"measurement": "mass density", "setting": "273.13 K, 29999 kPa, x2 = 0.8197", "result": "327.01 ± 1.1", "unit": "kg/m3"},
      {"measurement": "mass density", "setting": "273.14 K, 10580 kPa, x2 = 0.8197", "result": "143.25 ± 1.5", "unit": "kg/m3"},
      {"measurement": "mass density", "setting": "273.14 K, 21825 kPa, x2 = 0.714", "result": "351.99 ± 1.7", "unit": "kg/m3"},
      {"measurement": "mass density", "setting": "273.14 K, 24511 kPa, x2 = 0.8197", "result": "301.13 ± 1.2", "unit": "kg/m3"},
      {"measurement": "mass density", "setting": "273.14 K, 26076 kPa, x2 = 0.8197", "result": "309.49 ± 1.2", "unit": "kg/m3"},
      {"measurement": "mass density", "setting": "273.14 K, 26577 kPa, x2 = 0.8197", "result": "312.08 ± 1.2", "unit": "kg/m3"},
      {"measurement": "mass density", "setting": "273.14 K, 26982 kPa, x2 = 0.8197", "result": "314.11 ± 1.2", "unit": "kg/m3"},
      {"measurement": "mass density", "setting": "273.15 K, 25182 kPa, x2 = 0.8197", "result": "304.96 ± 1.2", "unit": "kg/m3"},
      {"measurement": "mass density", "setting": "273.15 K, 25661 kPa, x2 = 0.8197", "result": "307.41 ± 1.2", "unit": "kg/m3"},
      {"measurement": "mass density", "setting": "273.16 K, 13305 kPa, x2 = 0.8197", "result": "191.11 ± 1.9", "unit": "kg/m3"}
    ]}
  ]
}
